{
  "source": "patent US5998415A",
  "about": "“Bicyclic heteroaryl-alkylene-(homo)piperazinones and thione analogues thereof, their preparation, and their use of as selective agonists of 5-HT1 -like receptors” (Merck Sharp & Dohme Ltd., priority 1995, dated 1999)",
  "origin": "cited, not measured here",
  "key": {"[1]": {"details": "humans, therapeutic doses"}, "[2]": {"system": "human 5-HT1Dα and 5-HT1Dβ receptor subtypes", "details": "cf. WO-A-91/17174, Table 1"}},
  "data": [
    {"smiles": "CNS(=O)(=O)Cc1ccc2[nH]cc(CCN(C)C)c2c1", "note": "[sumatriptan]", "values": [
      {"measurement": "adverse cardiovascular events (in words)", "setting": "[1]", "result": "certain adverse cardiovascular events"},
      {"measurement": "discrimination between the human 5-HT1Dα and 5-HT1Dβ receptor subtypes (in words)", "setting": "[2]", "result": "barely discriminates between the human 5-HT1Dα and 5-HT1Dβ receptor subtypes"}
    ]}
  ]
}
